The assay is described as follows: Antitumor activity in MV522 cells assessed as inhibition of DNA synthesis after 2 hrs. The format is functional, cell-based. As to conditions: Homo sapiens, MV522, 2 h.

One may read the IC50 as the concentration that gives 50% inhibition. Turning to `CC1=C(C=O)C2=C(C)C3(CC3)[C@@](C)(O)C(=O)C2=C1`, the IC50 is 4900 nM. `CC1=C(CO)C2=C(C)C3(CC3)[C@@](C)(O)C(=O)C2=C1` [IROFULVEN]: the IC50 was 110 nM.

For the origin of these results see ChEMBL document CHEMBL1138299, “Synthesis and antitumor activity of amine analogs of irofulven” (Bioorg Med Chem Lett, 2007).
